Experimental data reported in patent US20200222410A1, “NUCLEOCYTOPLASMIC REGULATOR OF AUTOPHAGY-ASSOCIATED TRANSCRIPTION FACTORS” (BROWN UNIVERSITY, priority 2017, published 2020).
Where “and” joins values, the source holds several entries; their conditions need not be identical. Equal values may be shown once. Entries after “also recorded” stand apart in the source; their conditions may differ.

Legend:
C. elegans [1] = assay: Lifespan analysis of C. elegans; assay type: in vivo; conditions: for lifespan of treated animals compared to vehicle-treated controls: C. elegans wild-type; for % Difference in mean lifespan vs vehicle control / Drug treatment Mean Lifespan: N2 wild-type; for Drug treatment Mean Lifespan: 20° C.
Description: Lifespan analysis: Worms were synchronized by bleaching and eggs were grown on OP50 E. coli during development. Day 1 adults were transferred onto corresponding RNAi plates and kept at 20° C. Mantel-Cox log rank statistical analyses were calculated using Stata 13.0.

HLH-30 = assay: HLH-30::GFP nuclear localization in nematodes (fluorescent microscopy); assay type: in vivo, C. elegans
Description: The nematode C. elegans is an art-recognized system to identify genetic and pharmacological modifiers of various cellular processes. As such, an unbiased genome-wide RNAi screen for genetic modifiers of the activity of HLH-30/TFEB was performed (FIG. 1B). Specifically, enhancers of HLH-30 nuclear localization were searched for by following the distribution of HLH-30 fused to GFP.
HLH-30-GFP-expressing nematodes were fed HT115 E. coli bacteria transformed with a plasmid containing the L4440 backbone and a portion of the cDNA sequence complementary to the coding sequence of the xpo-1 gene. Nuclear enrichment was measured by fluorescent microscopy after animals were treated from eggs to day 1 of adulthood. The RNAi was based on the cosmid sequence ZK742.1 of the C. elegans genome. The sequence of the RNAi used is:
Fluorescent microscopy imaging: Transgenic worms were mounted on a 2% agarose pad with 0.1% sodium azide and imaged using a Zeiss Discovery V20 fluorescent microscope.
Animals were fed OP50 E. coli with 0.2% of DMSO (vehicle control) or 0.2% DMSO with KPT-330 at 0.2 mM. Nuclear localization of the HLH-30-GFP reporter and survival was measured.

TFEB = assay: TFEB-GFP nuclear localization in HeLa cells; assay type: cell-based, human; conditions: TFEB-GFP-expressing HeLa cells, 1 μM, 6 hours
Description: Cell culture: HeLa cells (ATCC) and HeLa cells expressing TFEB-GFP (S. Ferguson lab) were grown in 6-well plates on a coverslip for 24 hours in DMEM High Glucose (Genesee Scientific) containing 2 mM L-Glutamine, 1% Penicillin-Strep and 10% Fetal Bovine Serum (GenClone). For RNAi experiments, both HeLa cell lines were transfected with Silencer Select siRNA against XPO1 (5 nM) or TFEB (10 nM) or negative control siRNA #2 (Thermo Fisher Scientific) with RNAi Max (Thermo Fisher Scientific) and Opti-MEM (Gibco) for 48 hours. Cells were incubated for another 6 hours with DMSO 0.1%, Torin 1 […], KPT-330, KPT-276, KPT-185 or KPT-335 (1 μM) (Selleckchem). For Lysotracker analysis, cells on coverslips were previously grown with vehicle or compounds (including GSK-3β inhibitor VIII or Leptomycin b (10 nM) for 6 hours followed by a one hour incubation with 100 nM of Lysotracker Red DND-99 (Thermo Fisher Scientific) and live cells were imaged. Coverslips were mounted for imaging onto slides and imaged with a Zeiss Axiovert 200M Fluorescent Microscope. Lysotracker signal was quantified by measuring signal intensity over background of individual cells using ImageJ. For imaging TFEB-GFP signal, cells were fixed in methanol. Nuclear localization was quantified by counting cells that had higher GFP intensity in the nucleus compared to the cytoplasm measured using ImageJ.

mCherry::GFP::LGG-1 = assay: Autophagy analysis with tandem reporter mCherry::GFP::LGG-1 (autophagosome and autolysosome formation); assay type: in vivo, C. elegans; conditions: 50 or 100 μM, visualized after 48 hours
Description: Autophagy analysis: Worms expressing the tandem reporter GFP-mCherry-LGG-1 (Chang et al., (2017). Spatiotemporal regulation of autophagy during Caenorhabditis elegans aging. eLife 6) were treated from L4/day 1 of adulthood and imaged using an LSM 800 Zeiss Confocal Laser Scanning Microscope as previously described (Chang et al., (2017). Spatiotemporal regulation of autophagy during Caenorhabditis elegans aging. eLife 6). To functionally assess the effect of genetically or pharmacologically inhibiting xpo-1 on the autophagic pathway, autophagic flux (i.e. fusion of autophagosome to lysosome) was measured in C. elegans. Several fluorescent reporters of autophagy proteins (including LGG-1/LC3, SQST-1/P62) have been designed to observe and quantify autophagic flux. […] These animals were used to determine the effect of silencing (RNAi) xpo-1 on autophagy using fluorescent microscopy. The accumulation of unique red punctae represents active autolysosome formation, indicative of activated autophagy.

C. elegans [2] = assay: Heat stress survival assay (37° C.); assay type: in vivo; conditions: 100 μM
Description: (§1) Proteostasis analyses: Heat shock analyses were performed at 37° C. and scoring survival every hour. Aggregation was visualized by fluorescent microscopy using strains expressing Q35::GFP in muscle (AM140) (Morley et al., 2002, The threshold for polyglutamine-expansion protein aggregation and cellular toxicity is dynamic and influenced by aging in Caenorhabditis elegans. Proc Natl Acad Sci USA 99, 10417-10422) or Q40::YFP in intestine (GF78) (Mohri-Shiomi and Garsin, (2008) Insulin signaling and the heat shock response modulate protein homeostasis in the Caenorhabditis elegans intestine during infection. J Biol Chem 283, 194-201). Aggregate clearance was assayed with a strain (GMC101) (McColl et al., (2012). Utility of an improved model of amyloid-beta (Abeta(1)(−) (4)(2)) toxicity in Caenorhabditis elegans for drug screening for Alzheimer's disease. Mol Neurodegener 7, 57). […]) inducing expression of human Aβ42 at 25° C. Following a 5-day RNAi feeding, paralysis was assayed after 48 hours at 25° C.

dsodH71Y flies = assay: Lifespan analysis of ALS model in flies (dsodH71Y); assay type: in vivo, D. melanogaster; conditions: for Drug treatment Mean Lifespan: H71Y Sod-1 (dsod) flies, 25° C.; for % Difference in mean lifespan vs vehicle control: H71Y flies
Description: l Lifespan analysis in Drosophila: Measurement of lifespan (25° C.) in dsodH71Y was performed as previously described in the art (Sahin et al., 2017, Human SOD1 ALS Mutations in a Drosophila Knock-In Model Cause Severe Phenotypes and Reveal Dosage-Sensitive Gain- and Loss-of-Function Components. Genetics 205, 707-723). The software Stata 13.0 was used to perform Mantel-Cox log rank statistical analyses.

[3] = tested on: polyQ-containing protein aggregates; assay: polyQ aggregate formation (Q35::GFP muscle, Q40::YFP intestine); assay type: in vivo, C. elegans; conditions: day 5 animals, 100 μM
Description: as §1

Compound: O=C(/C=C\n1cnc(-c2cc(C(F)(F)F)cc(C(F)(F)F)c2)n1)N1CC(F)(F)C1 [KPT-276]
- lifespan of treated animals compared to vehicle-treated controls (C. elegans [1]): lifespan extension
- % Difference in mean lifespan vs vehicle control (C. elegans [1]; 25 μM): 9.4%
- Drug treatment Mean Lifespan (C. elegans [1]; 25 μM): 23.2 days
- nuclear enrichment of HLH-30 (HLH-30; 25 μM): nuclear enrichment of HLH-30
- nuclear localization of TFEB (TFEB): marked increase in nuclear localization of TFEB

Compound: O=C(/C=C\n1cnc(-c2cc(C(F)(F)F)cc(C(F)(F)F)c2)n1)NNc1cnccn1 [KPT-330, Selinexor]
- lifespan of treated animals compared to vehicle-treated controls (C. elegans [1]): significant lifespan extension; also recorded: significant increase in the lifespan
- % Difference in mean lifespan vs vehicle control (C. elegans [1]; 25 μM): 12.4% and 13.2%
- Drug treatment Mean Lifespan (C. elegans [1]; 25 μM): 21.7 days and 24 days
- % Difference in mean lifespan vs vehicle control (C. elegans [1]; 50 μM): 9.8% and 17%
- Drug treatment Mean Lifespan (C. elegans [1]; 50 μM): 21.2 days and 24.8 days
- % Difference in mean lifespan vs vehicle control (C. elegans [1]; 100 μM): 14% and 21.7%
- Drug treatment Mean Lifespan (C. elegans [1]; 100 μM): 22 days and 25.8 days
- Autophagy in pharynx and hypodermal seam cells (mCherry::GFP::LGG-1): enhanced
- resistance to heat (C. elegans [2]; day 1 to day 5 of adulthood): improved resistance to heat
- % Difference in heat stress survival vs vehicle control (C. elegans [2]; N2 wild-type, Day 5 of adulthood): 18.5% and 34.7%
- Heat Stress survival (mean, hours) (C. elegans [2]; N2 wild-type, Day 5 of adulthood after 5 days of treatment): 6.4 h and 6.2 h
- Drug treatment Mean Lifespan (dsodH71Y flies; both sexes, 100 μM): 9.8 days and 13.5 days
- Drug treatment Mean Lifespan (dsodH71Y flies; females, 100 μM): 12 days and 16.9 days
- Drug treatment Mean Lifespan (dsodH71Y flies; males, 100 μM): 6.8 days and 6 days
- % Difference in mean lifespan vs vehicle control (dsodH71Y flies; both sexes, 100 μM): 24.0% and 18.4%
- % Difference in mean lifespan vs vehicle control (dsodH71Y flies; females, 100 μM): 26.3% and 27.1%
- overall survivorship compared to control (dsodH71Y flies; dsodH71Y flies fed 100 μM during adulthood): beneficial impact on the overall survivorship
- lifespan of females (dsodH71Y flies; dsodH71Y flies, 100 μM): extended significantly
- nuclear localization of HLH-30 (HLH-30; Day 1 adults, 25, 50 and 100 μM for 72 hours): displayed nuclear localization of HLH-30
- Nuclear localization of HLH-30::GFP (HLH-30; concentrations below 25 μM): not detected
- nuclear localization of HLH-30 (HLH-30; lower concentration (data not shown)): also led to nuclear localization of HLH-30
- nuclear localization of HLH-30 (fused to GFP) (HLH-30; nematodes grown on plates containing 2 mM): led to nuclear localization of HLH-30
- nuclear localization of TFEB (TFEB): marked increase in nuclear localization of TFEB
- formation of polyQ-containing (Q40::YFP) aggregates [3]: reduction in the formation

Compound: COc1cc(-c2ncn(/C=C\C(=O)OC(C)C)n2)cc(C(F)(F)F)c1 [KPT-185]
- nuclear localization of TFEB (TFEB): marked increase in nuclear localization of TFEB

Compound: O=C(/C=C\n1cnc(-c2cc(C(F)(F)F)cc(C(F)(F)F)c2)n1)NNc1ccccn1 [KPT-335, Verdinexor]
- nuclear localization of TFEB (TFEB): marked increase in nuclear localization of TFEB
